Data set [1] deals with T1, Recombinant human glycogen synthase kinase 3β (Homo sapiens, UniProt P49841).
T1 construct: purchased Upstate 14-306
Nature of the data set: GSK-3β inhibition (radiometric 33P-ATP, GS-2 peptide substrate). The class given is biochemical. The following applies: remaining GSK-3 activity. As for the experimental part: This assay is based on the protocol detailed by Upstate Cat. 14-306, making some slight modifications.
Recombinant human glycogen synthase kinase 3β is assayed in MOPS 11 mM pH7.4, EDTA 0.2 mM, EGTA 1.25 mM, MgCl2 26.25 mM and sodium orthovanadate 0.25 mM in the presence of 62.5 μM of Phospho-Glycogen Synthase Peptide-2 (GS-2) (TOCRIS, Cat. 1352), 0.5 μCi γ-^33P-ATP and unlabelled ATP (Sigma, A-9187) at a final concentration of 12.5 μM. After incubation for 30 minutes at 30° C., aliquots are spotted onto P81 phosphocellulose papers. Filters are washed four times for at least 10 minutes each with 1% phosphoric acid and counted with scintillation cocktail in a scintillation counter (PerkinElmer, Microbeta 1450). The activity of GSK-3 is tested at concentrations of 25 and 50 μM, in the presence of the compound synthesized according to example 1 and in the presence of another 6 compounds of formula (I). The results obtained are indicated in Table I (see below), in the form of percentage of GSK-3 activity.

The test system of data set [2] is phosphorylated human Tau [pS396] in SHSY5Y cells. Description: Inhibition of tau phosphorylation in SHSY5Y cells (Tau [pS396] sandwich ELISA). Particulars: 18 h. On the set-up: key: “NEG” means no tau phosphorylation inhibition was detected at the referred concentration of compound (I); “POS” means that at the referred concentration tau phosphorylation inhibition was detected. Type of data set: cell-based. As for the experimental part:
Human neuroblastoma SHSY5Y cells were seeded in the presence of Minimum Essential Medium/Nutrient Mixture F-12. One day later, cells are treated with samples for 18 h at 37° C. After treatment, cultures are washed with phosphate-buffered saline and lysed for 30 min at 4° C. in extraction buffer (10 mM Tris-HCl, pH 7.4, 100 mM NaCl, 1 mM EDTA, 2 mM Na3VO4, 1% Triton X-100, 10% glycerol, 0.1% SDS, 0.5% Sodium deoxycholate, 1 mM PMSF and a protease inhibitor cocktail (Roche, Cat 1 697 498)).
The quantitative determination of phosphorylated human Tau is made taking aliquots of the cell lysate and using a phosphorylation-specific antibody against Tau [pS396] in a sandwich ELISA (Biosource, Cat KHB7031). Tau phosphorylation is estimated by measuring the absorbance at 450 nm in a microtiter plate reader (Cultek, Anthos 2010).
The effect of the synthesized compound according to example 1 and that of another 6 compounds of formula (I) is determined at different final concentrations, namely 50, 100 and 200 μM. Not all the compounds of formula (I) were tested at all the concentrations. The results are indicated in Table 1 (see below) as “NEG” and “POS”, respectively meaning “negative” and “positive”; “NEG” means no tau phosphorylation inhibition was detected at the referred concentration of compound (I); “POS” means that at the referred concentration tau phosphorylation inhibition was detected.
(An ELISA detects its analyte on a solid surface through an enzyme-linked reagent.)

Data set [3] concerns SH-SY5Y cells. Description: Cell survival by LDH release in SH-SY5Y cells. The class given is cell-based. As for the experimental part:
In addition to tau phosphorylation assays, quantification of cell death due to potential toxicity of compounds 1 and 3 described above is made by measuring LDH release (Roche, Cat 1 644 793). For the quantitative determination of cell survival, aliquots of the cell lysate are incubated with an equal volume of reaction mixture at room temperature for 20-30 min. The measure of absorbance is made in a microtiter plate reader with 490-492 nm filter (Cultek, Anthos 2010).
For compounds 1 and 3, the cell survival was measured at 24 hours treatment (see Table 2), and for compound 2 was measured at 18 hours treatment (see Table 3), in SH-SY5Y cells. It is generally considered that a compound is considered toxic if less than 80% of the cells survive after treatment with a compound.
(In general: Release of lactate dehydrogenase indicates damage to the cell membrane.)

The values that follow come from patent publication US20090221647A1, “N-(2-THIAZOLYL)-AMIDE DERIVATIVES AS GSK-3 INHIBITORS” (NOSCIRA, S.A., priority 2006, published 2009).

T1 sequence (P49841 whole entry): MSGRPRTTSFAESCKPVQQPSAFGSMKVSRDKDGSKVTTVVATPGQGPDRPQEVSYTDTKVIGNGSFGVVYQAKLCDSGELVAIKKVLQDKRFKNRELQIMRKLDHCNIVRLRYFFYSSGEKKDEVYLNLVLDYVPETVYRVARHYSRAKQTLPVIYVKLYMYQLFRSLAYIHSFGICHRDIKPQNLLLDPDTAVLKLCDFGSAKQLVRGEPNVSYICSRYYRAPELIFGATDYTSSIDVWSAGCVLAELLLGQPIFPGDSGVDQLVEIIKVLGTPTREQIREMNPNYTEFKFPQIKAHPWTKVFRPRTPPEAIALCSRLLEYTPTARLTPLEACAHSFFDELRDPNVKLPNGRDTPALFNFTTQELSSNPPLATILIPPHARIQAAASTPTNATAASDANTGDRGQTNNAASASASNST

In the case of `O=C(CCc1cccnc1)Nc1ncc([N+](=O)[O-])s1` [Compound 2], the “% GSK-3 Activity” value in data set [1] (25 μM compound) is recorded as 8.3%; in data set [1] (50 μM compound), 5.36%. Moreover, the “Tau phosphorylation inhibition in cells” value in data set [2] (50 μM compound) and in data set [2] (100 μM compound) was “POS” throughout. The “% of cell viability” value is listed as 95.7 ± 4.2% in data set [3] (50 μM, 18 hours treatment) and 93.7 ± 7.1% in data set [3] (100 μM, 18 hours treatment).

Consider `O=C(Nc1ncc([N+](=O)[O-])s1)c1ccccn1` [Compound 5], for which the “% GSK-3 Activity” value is given as 76.72% in data set [1] (25 μM compound) and 43.78% in data set [1] (50 μM compound).

Regarding `O=C(Cc1cccnc1)Nc1ncc([N+](=O)[O-])s1` [Compound 1, N-(5-Nitro-thiazol-2-yl)-2-pyridin-3-yl-acetamide], the “% GSK-3 Activity” value in data set [1] (25 μM compound) turned out to be 5.21%; in data set [1] (50 μM compound) it was 2.78%. Further, the “Tau phosphorylation inhibition in cells” value in data set [2] (50 μM compound) and in data set [2] (100 μM compound) was “POS” each time. In addition, the “% of cell viability” value in data set [3] (50 μM, 24 hours treatment) stood at 94.1 ± 1.8%; in data set [3] (100 μM, 24 hours treatment), 86.5 ± 4.7%.

Take `O=C(Cc1ccccn1)Nc1ncc([N+](=O)[O-])s1` [Compound 3]: the “% GSK-3 Activity” value was 9.49% in data set [1] (25 μM compound) and 4.1% in data set [1] (50 μM compound). Moreover, the “Tau phosphorylation inhibition in cells” value in data set [2] (50 μM compound) is reported as “NEG”; in data set [2] (100 μM compound), “POS”. For the same compound, the “% of cell viability” value in data set [3] (50 μM, 24 hours treatment) was 87 ± 6.0%; in data set [3] (100 μM, 24 hours treatment) it was 85.4 ± 2.7%.

Consider `O=C(Cc1cccnc1)Nc1nccs1` [Compound 6], for which the “% GSK-3 Activity” value was 22.29% in data set [1] (25 μM compound) and 50.90% in data set [1] (50 μM compound).

As for `O=C(Cc1ccccc1)Nc1ncc([N+](=O)[O-])s1` [Compound 7], the figures for the “% GSK-3 Activity” value in data set [1] (25 μM compound) and in data set [1] (50 μM compound) were 13.73% and 8.05%, respectively. For the same compound, the “Tau phosphorylation inhibition in cells” value in data set [2] (50 μM compound) and in data set [2] (100 μM compound) was “POS” in each case.

Regarding `O=C(Cc1cccnc1)Nc1ncc(Cl)s1` [Compound 4], the “% GSK-3 Activity” value is 5.6% in data set [1] (25 μM compound) and 13.8% in data set [1] (50 μM compound). In addition, the entries for the “Tau phosphorylation inhibition in cells” value in data set [2] (50 μM compound) and in data set [2] (100 μM compound) were “NEG” and “POS”, respectively.
